# Several values for one entry are separate records, joined by “and”; a condition that tells them apart may be missing. Equal values may be shown once.
# Columns and labels:
# A549 = experiment: MTT cell viability assay A549; assay type: cell-based, human; settings: Homo sapiens, A549, 48 h
# Procedure: Cell viability was evaluated using an MTT colorimetric assay. Cells were seeded (10^5 cells/mL) in 96-well plates and allowed to grow overnight at 37 ℃ with 5% CO2 in a cell-culture incubator. On the following day, the cells were treated with small molecules at different concentrations (0.2–10 micro-molar) or vehicle (DMSO). Cells were then further incubated for 48 h.
# [1] = tested on: IFN-γ-producing CD4+ T-cells; experiment: T-cell differentiation of splenocytes, IFN-γ in CD4+ T-cells (Th1), flow cytometry; assay type: cell-based, C57BL/6 mice; settings: dose-dependent, 0.01-10 µM
# Procedure: Splenocytes were isolated from the spleen of C57BL/6 mice. The whole spleen was crushed in a complete RPMI medium and passed through the 40 µm cell filter to obtain a single-cell suspension. The cell suspension was centrifuged at 300×g for 5 min, and the pellet was resuspended into the 1× RBC lysis buffer (Life Technology, Thermofisher, USA) for 10 min at room temperature to lyse the red blood cells. The sample was further centrifuged at the same speed and duration, and the pellet was resuspended in complete RPMI medium. Now, splenocytes were seeded into the 96-well plates (U bottom) at 3 × 10^5 cells/well density. […] For Th1 and Tc1 differentiation, IL-12 (5 ng/ml) was added and allowed to grow for four days.
# Prior to harvesting, cells were further stimulated with PMA (50 ng/ml), ionomycin (1000 ng/ml), and glogi Stop (as per manufacturer recommendation) for 4 h. The plate was spun down at 2000 rpm for 10 min and washed once with FACS buffer (3% FBS, 1× PBS, and 200 mM EDTA). Cells were stained with anti-CD4-PerCP and anti-CD8-FITC antibodies (BD, Biosciences) in the dilution 1:400 by adding 100 µl/well and incubated at RT for 60 min. […] Cells were finally washed and resuspended into FACS buffer, and data was recorded into the BD accuri C6 flow cytometer, and data were analyzed by Flowjo.
# PI-3-K γ = target: T1, PI-3-K γ (Homo sapiens, UniProt P48736); experiment: Cell-free kinase assay PI-3-K γ; assay type: biochemical
# T1 construct: purchased Promega Corporation V1690
# Procedure: (§1) The cell-free kinase assays of small molecules were determined by following the manufacturer-recommended protocols. Different concentrations in triplicate were used to determine the IC50 value of the hit molecules (active molecules). For data analysis, GraphPad Prism V9.5 Software and a sigmoidal dose–response (variable slope) equation were used. Each value represents an average of three replicates per concentration.
# [2] = Stability of the formulation used for in vivo studies (HPLC); assay type: physicochemical; settings: ethanol / ethanol:PEG-300, room temperature, 0-48 h
# Procedure: The stability study of the lead compound (MJ04) was performed using HPLC analysis wherein the samples were studied after different time intervals. The 0.6 mg of MJ04 was taken and dissolved in 1 mL of ethanol to achieve 0.6 mg/mL concentration. Out of this, 500 µL was further diluted to 0.3 mg/mL by adding 500 µL ethanol to it (Ethanol sample). To remaining 500 µL, we added 500 µL PEG-300 to achieve final concentration of 0.3 mg /mL (Ethanol:PEG sample). HPLC of these samples was performed at various time points (0 h, 12 h, 24 h and 48 h) upon incubating at room temperature. The HPLC of samples was performed by RP-18 end capped; […], 4.6 × 250 mm. The mobile phase containing water (30%) and acetonitrile (70%) was used at the flow rate of 1 mL/min at a column temperature of 27 °C at 210 nm wavelength. A volume of 5 µL of sample was injected and the total run time of the assay was 30 min using the isocratic technique in the HPLC system.
# PI-3-K δ = target: T2, PI-3-K δ (Homo sapiens, UniProt O00329); experiment: Cell-free kinase assay PI-3-K δ; assay type: biochemical; settings: Km ATP
# T2 construct: purchased Promega Corporation V1690
# Procedure: as §1
# JAK3 = target: T3, JAK3 (Homo sapiens, UniProt P52333); experiment: Cell-free kinase assay JAK3; assay type: biochemical
# T3 construct: purchased Promega Corporation V3701
# T3 sequence (P52333 1-1124): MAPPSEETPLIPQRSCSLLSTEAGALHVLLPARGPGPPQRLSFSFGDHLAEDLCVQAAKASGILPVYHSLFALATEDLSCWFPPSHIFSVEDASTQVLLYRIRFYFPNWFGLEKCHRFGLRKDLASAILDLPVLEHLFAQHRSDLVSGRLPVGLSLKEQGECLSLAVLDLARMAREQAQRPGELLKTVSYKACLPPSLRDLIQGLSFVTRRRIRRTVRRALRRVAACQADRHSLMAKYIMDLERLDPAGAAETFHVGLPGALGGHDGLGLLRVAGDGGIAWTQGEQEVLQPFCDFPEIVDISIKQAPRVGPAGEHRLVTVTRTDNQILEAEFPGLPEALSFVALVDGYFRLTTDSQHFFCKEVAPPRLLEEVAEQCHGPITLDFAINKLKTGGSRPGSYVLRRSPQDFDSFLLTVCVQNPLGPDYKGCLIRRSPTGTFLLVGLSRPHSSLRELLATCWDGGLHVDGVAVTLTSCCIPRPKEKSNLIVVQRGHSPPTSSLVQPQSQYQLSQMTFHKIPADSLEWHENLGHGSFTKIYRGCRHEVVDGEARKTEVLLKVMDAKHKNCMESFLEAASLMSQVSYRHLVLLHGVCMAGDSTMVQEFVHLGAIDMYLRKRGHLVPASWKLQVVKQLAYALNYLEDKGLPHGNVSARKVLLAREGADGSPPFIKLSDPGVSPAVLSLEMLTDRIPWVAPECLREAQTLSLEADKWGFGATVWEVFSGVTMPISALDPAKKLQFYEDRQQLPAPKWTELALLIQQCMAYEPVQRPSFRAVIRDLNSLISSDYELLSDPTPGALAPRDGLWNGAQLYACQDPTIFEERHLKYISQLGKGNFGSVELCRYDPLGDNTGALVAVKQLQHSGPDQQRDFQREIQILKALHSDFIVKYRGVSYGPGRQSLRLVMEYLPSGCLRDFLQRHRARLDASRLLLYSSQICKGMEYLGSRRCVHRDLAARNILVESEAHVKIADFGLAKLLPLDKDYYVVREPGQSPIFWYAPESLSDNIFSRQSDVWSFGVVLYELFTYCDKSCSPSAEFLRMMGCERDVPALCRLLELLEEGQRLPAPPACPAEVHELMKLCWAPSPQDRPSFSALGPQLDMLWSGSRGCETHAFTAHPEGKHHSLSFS
# Procedure: as §1
# [3] = Body weight of athymic nude mice during topical treatment; assay type: in vivo, athymic nude mice (NU/J Foxn1nu); settings: individual mice
# Procedure: . The groups are as follows: Group 1-Control (untreated), Group 2-Vehicle control, Group 3-tofacitinib citrate (0.8 mg/Kg), Group 4-tofacitinib citrate (0.08 mg/Kg), Group 5-MJ04 (0.08 mg/Kg), Group 6-MJ04 (0.04 mg/Kg), Group 7-MJ04 (0.016 mg/Kg), Group 8-baricitinib (0.1 mg/Kg), Group 9-baricitinib (0.04 mg/Kg), and Group 10-baricitinib (0.02 mg/Kg). At the end of the experiment, skin samples were collected and preserved in 10% neutral buffered formalin for tissue sectioning and staining using haematoxylin and eosin (H&E). […]
# T1 sequence (P48736 whole entry): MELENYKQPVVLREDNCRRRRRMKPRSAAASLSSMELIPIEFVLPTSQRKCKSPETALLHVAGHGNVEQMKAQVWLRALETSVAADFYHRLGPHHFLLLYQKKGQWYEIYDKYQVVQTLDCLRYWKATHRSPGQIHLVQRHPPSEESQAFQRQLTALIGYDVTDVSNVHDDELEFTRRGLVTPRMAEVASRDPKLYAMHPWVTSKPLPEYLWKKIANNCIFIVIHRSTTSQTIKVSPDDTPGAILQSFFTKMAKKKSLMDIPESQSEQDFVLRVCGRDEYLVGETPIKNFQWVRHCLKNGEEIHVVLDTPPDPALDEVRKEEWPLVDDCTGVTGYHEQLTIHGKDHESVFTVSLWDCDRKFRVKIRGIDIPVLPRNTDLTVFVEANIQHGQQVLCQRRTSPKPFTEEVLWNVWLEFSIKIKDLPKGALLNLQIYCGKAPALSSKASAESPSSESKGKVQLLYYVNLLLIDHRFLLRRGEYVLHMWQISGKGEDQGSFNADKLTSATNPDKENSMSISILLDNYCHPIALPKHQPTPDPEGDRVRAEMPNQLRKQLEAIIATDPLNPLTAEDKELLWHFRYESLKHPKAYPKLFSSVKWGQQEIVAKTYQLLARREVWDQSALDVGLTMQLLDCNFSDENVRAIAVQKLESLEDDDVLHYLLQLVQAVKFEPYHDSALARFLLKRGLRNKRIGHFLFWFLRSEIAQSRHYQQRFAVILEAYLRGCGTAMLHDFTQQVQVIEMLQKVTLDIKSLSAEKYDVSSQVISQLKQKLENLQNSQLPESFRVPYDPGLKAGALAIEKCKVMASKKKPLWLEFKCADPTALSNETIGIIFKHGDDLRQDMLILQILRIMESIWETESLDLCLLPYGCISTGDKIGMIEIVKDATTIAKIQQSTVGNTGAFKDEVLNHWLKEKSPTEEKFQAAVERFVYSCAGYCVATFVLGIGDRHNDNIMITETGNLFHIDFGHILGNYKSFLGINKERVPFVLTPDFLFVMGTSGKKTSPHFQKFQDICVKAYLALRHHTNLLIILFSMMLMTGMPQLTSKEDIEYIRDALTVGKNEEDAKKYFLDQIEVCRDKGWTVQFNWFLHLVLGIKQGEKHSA
# T2 sequence (O00329 whole entry): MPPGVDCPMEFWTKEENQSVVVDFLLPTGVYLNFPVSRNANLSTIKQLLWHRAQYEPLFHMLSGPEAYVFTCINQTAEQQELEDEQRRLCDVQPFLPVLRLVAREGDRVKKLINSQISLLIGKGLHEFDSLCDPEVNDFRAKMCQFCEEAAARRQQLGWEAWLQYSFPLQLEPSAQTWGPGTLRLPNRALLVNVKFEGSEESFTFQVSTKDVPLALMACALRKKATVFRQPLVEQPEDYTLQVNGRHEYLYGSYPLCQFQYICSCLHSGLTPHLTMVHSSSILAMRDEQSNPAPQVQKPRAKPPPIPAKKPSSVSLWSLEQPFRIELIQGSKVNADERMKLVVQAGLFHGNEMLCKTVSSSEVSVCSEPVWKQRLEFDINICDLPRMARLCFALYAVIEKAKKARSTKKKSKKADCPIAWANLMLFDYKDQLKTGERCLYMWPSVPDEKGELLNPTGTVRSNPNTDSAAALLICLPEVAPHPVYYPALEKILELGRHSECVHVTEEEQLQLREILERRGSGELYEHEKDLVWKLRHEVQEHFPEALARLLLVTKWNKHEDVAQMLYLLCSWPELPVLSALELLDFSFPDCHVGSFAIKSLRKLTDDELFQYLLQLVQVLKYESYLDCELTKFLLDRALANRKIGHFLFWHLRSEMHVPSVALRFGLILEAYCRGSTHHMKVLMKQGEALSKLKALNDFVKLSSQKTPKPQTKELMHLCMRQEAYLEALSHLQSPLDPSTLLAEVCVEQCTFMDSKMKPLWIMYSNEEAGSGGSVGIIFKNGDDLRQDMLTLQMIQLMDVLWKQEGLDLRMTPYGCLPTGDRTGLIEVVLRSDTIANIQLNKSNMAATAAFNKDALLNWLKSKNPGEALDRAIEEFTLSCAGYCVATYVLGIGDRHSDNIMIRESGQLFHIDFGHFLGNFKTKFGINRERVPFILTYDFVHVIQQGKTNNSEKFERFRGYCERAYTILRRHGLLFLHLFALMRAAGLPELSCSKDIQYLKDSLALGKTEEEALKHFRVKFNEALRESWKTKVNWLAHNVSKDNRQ
# T2 sequence (P27986 whole entry partner): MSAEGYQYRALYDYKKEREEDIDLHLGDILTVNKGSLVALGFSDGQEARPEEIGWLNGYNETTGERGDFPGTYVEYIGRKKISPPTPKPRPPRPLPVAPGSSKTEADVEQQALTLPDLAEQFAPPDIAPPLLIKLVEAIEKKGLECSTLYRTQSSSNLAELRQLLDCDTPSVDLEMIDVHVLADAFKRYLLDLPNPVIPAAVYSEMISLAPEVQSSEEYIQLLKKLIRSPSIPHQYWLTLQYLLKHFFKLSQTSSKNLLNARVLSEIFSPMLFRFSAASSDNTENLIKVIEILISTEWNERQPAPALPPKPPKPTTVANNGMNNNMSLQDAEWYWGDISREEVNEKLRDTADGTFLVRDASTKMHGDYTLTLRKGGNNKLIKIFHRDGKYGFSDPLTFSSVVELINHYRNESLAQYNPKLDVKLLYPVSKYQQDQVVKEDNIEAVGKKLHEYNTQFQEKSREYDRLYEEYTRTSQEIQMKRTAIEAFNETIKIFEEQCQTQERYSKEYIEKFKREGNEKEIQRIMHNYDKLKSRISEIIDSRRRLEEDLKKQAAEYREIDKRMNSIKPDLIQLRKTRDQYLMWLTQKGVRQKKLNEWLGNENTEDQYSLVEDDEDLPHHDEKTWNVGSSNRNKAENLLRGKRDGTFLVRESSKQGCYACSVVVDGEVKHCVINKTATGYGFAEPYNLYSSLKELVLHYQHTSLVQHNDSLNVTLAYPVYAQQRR
structure (smiles),measurement,setting,value
Fc1ccc(-c2cnc3[nH]cc(-c4ccnc(NC5CC5)n4)c3c2)cc1 [MJ04],IC50,A549,3.79 µM
same,differentiation of naïve T cells into Th1 subsets,[1],inhibits the differentiation of naïve T cells
same,IC50,PI-3-K γ; Km ATP,3.67 µM
same,Fold of selectivity vs. JAK3,PI-3-K γ; PI-3-K γ,1806
same,stability in the formulation used for animal experiments,[2],stable
same,IC50,PI-3-K δ,> 10 µM
same,IC50,JAK3; 1mM ATP,0.0285 µM
same,Fold of selectivity vs. JAK3,JAK3; JAK 3,1
same,IC50,JAK3; Km ATP (2.5 µM),0.00203 µM
same,inhibitory activity against JAK3 in kinase assays and in MTT assays,JAK3; structure-activity statement,significant inhibitory activity
"CCS(=O)(=O)N1CC(CC#N)(n2cc(-c3ncnc4[nH]ccc34)cn2)C1 [Baricitinib, baricitinib, reference compound]",Weight of nude mice (NU/J Foxn1nu),"[3]; 0.02 mg/kg, DAY 1",17.9 and 18.3 and 18.5 and 18.7 and 19.2
same,Weight of nude mice (NU/J Foxn1nu),"[3]; 0.02 mg/kg, DAY 7",19.4 and 19.8 and 20.2 and 20.4 and 20.7
same,Weight of nude mice (NU/J Foxn1nu),"[3]; 0.02 mg/kg, DAY 14",21.2 and 21.3 and 21.7 and 22.1 and 22.5
same,Weight of nude mice (NU/J Foxn1nu),"[3]; 0.02 mg/kg, DAY 21",22.6 and 22.8 and 23.2 and 24.2 and 24.4
same,Weight of nude mice (NU/J Foxn1nu),"[3]; 0.02 mg/kg, DAY 28",24.3 and 24.8 and 24.9 and 25.8 and 26.2
same,Weight of nude mice (NU/J Foxn1nu),"[3]; 0.04 mg/kg, DAY 1",17.9 and 18.5 and 18.6 and 18.7 and 19.1
same,Weight of nude mice (NU/J Foxn1nu),"[3]; 0.04 mg/kg, DAY 7",19.2 and 19.8 and 20.1 (2×) and 20.5
same,Weight of nude mice (NU/J Foxn1nu),"[3]; 0.04 mg/kg, DAY 14",20.8 and 20.9 and 21.4 and 21.5 and 21.8
same,Weight of nude mice (NU/J Foxn1nu),"[3]; 0.04 mg/kg, DAY 21",22.4 and 22.6 and 23.1 and 23.3 and 23.5
same,Weight of nude mice (NU/J Foxn1nu),"[3]; 0.04 mg/kg, DAY 28",24.6 and 24.8 and 25.3 and 25.4 and 25.7
same,Weight of nude mice (NU/J Foxn1nu),"[3]; 0.1 mg/kg, DAY 1",18.5 and 18.6 and 18.7 and 19.3 and 18.8
same,Weight of nude mice (NU/J Foxn1nu),"[3]; 0.1 mg/kg, DAY 7",19.7 and 19.8 and 21.1 and 20.1 and 20.4
same,Weight of nude mice (NU/J Foxn1nu),"[3]; 0.1 mg/kg, DAY 14",21.3 and 22.9 and 21.8 and 22.1
same,Weight of nude mice (NU/J Foxn1nu),"[3]; 0.1 mg/kg, DAY 21",22.6 and 23.2 and 24.3 and 23.6 and 23.8
same,Weight of nude mice (NU/J Foxn1nu),"[3]; 0.1 mg/kg, DAY 28",25.3 and 24.8 and 25.7 and 25.8 and 25.4
